{"source": "patent US8546435B2", "about": "“Triazole derivatives with improved receptor activity and bioavailability properties as ghrelin antagonists of growth hormone secretagogue receptors” (AEterna Zentaris GmbH, priority 2010, dated 2013)", "key": {"[1]": {"target": "MDR-1 (P-glycoprotein, Pgp) (Homo sapiens (Human), UniProt P08183)", "sequence (P08183 whole entry)": "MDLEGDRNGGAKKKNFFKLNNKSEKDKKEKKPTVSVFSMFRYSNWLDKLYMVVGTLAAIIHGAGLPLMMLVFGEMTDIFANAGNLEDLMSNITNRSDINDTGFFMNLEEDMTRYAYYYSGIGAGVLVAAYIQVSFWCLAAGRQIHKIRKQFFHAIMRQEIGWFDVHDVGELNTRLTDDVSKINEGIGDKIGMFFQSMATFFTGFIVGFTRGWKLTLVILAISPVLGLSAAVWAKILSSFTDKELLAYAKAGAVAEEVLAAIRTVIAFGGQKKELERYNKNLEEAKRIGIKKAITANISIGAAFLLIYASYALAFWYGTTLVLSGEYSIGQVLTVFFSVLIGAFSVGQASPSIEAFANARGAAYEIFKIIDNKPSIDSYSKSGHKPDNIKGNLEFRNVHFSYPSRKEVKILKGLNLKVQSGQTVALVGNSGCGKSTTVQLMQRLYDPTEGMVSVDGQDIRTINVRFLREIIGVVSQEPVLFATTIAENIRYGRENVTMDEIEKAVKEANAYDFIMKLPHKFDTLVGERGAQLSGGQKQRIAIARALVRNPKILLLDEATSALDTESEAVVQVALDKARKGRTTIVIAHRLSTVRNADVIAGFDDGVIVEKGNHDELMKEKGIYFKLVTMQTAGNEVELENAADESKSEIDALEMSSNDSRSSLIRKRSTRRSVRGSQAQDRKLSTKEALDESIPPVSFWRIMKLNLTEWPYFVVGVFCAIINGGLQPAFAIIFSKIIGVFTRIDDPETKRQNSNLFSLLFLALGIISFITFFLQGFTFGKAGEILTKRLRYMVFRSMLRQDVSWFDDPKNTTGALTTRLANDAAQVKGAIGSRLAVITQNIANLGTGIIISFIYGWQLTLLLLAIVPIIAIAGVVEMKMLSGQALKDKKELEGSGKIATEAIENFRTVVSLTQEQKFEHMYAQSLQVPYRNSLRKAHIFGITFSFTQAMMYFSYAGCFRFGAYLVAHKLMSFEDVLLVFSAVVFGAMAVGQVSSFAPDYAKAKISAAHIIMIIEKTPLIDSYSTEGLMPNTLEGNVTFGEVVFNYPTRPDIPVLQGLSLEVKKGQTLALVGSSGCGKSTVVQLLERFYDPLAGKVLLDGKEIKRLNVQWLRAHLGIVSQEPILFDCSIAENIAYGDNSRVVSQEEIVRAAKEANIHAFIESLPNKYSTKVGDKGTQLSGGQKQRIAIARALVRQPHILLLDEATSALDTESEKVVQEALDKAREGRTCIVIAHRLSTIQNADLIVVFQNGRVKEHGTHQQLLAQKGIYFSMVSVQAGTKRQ", "assay": "Inhibition of MDR1 ATPase (Pgp-Glo assay, SF9 membrane preparations)", "type": "biochemical", "method": "For detection of MDR-1 (P-glycoprotein, Pgp) ATPase activity commercially available membrane preparations of MDR-1 overexpressing SF9 insect cells (SB-MDR1-Sf9-ATPase Membrane; 2.5 mg/500 μL; Solvo/tebu-bio #168SB-MDR1-Sf9-ATPase) were used. Since transport by MDR-1 is ATP-dependent, ATP consumption indicates transport activity of MDR-1. ATP consumption is detected as a decrease in luminescence from a second reaction with a recombinant firefly luciferase by using the Pgp-Glo™ Assay Kit (Promega # V3591)."}, "[2]": {"assay": "Stability in liver microsomes", "type": "in vitro ADME, human", "conditions": "@37° C./1 mg/ml Liver Microsomes, 10 μM", "method": "(§1) Metabolic stability in liver microsomes of different species (in the presence of NADPH, 1 mg/ml microsomal protein) was evaluated at 37° C. over time in triplicates at a test concentration of 10 μM. Loss of parent compound is measured by an HPLC-based UV detection method. For prediction of rat hepatic clearance half-lives (t1/2) were fitted from first-order rate constant k (min^−1) obtained from the slope of time versus In % remaining."}, "[3]": {"assay": "Stability in liver microsomes", "type": "in vitro ADME, mouse", "conditions": "37° C./1 mg/ml Liver Microsomes, 10 μM", "method": "as §1"}, "hERG channel": {"target": "hERG channel (Homo sapiens (Human), UniProt Q12809)", "sequence (Q12809 whole entry)": "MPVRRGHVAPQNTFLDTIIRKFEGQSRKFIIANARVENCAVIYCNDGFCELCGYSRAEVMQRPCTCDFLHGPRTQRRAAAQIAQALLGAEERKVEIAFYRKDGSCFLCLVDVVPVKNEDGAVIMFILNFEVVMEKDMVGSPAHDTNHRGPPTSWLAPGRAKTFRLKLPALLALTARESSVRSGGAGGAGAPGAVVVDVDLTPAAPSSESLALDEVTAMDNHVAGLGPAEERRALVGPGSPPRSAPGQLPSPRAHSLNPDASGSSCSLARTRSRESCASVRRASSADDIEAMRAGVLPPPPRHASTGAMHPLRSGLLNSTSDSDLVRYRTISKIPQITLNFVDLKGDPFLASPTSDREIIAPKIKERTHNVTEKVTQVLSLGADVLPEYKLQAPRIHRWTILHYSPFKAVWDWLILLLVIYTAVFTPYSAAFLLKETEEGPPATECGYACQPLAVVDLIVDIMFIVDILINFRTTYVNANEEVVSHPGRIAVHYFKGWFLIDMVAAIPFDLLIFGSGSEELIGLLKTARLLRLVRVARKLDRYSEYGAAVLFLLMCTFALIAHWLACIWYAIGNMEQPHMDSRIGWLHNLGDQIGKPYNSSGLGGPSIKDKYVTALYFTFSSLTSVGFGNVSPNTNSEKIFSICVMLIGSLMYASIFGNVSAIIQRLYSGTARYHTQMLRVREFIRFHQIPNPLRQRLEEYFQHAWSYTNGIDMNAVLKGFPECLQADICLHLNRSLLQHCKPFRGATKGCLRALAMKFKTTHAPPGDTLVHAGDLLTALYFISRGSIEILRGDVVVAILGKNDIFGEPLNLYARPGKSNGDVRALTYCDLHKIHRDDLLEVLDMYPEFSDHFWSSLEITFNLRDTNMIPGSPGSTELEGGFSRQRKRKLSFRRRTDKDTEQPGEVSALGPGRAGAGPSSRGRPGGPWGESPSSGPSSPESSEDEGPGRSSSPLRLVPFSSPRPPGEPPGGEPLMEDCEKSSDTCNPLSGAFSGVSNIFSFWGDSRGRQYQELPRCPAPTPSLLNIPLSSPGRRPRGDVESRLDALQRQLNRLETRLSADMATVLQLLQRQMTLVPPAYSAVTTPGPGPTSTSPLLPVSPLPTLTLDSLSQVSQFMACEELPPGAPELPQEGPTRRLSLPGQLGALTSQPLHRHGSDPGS", "assay": "Predictor hERG Fluorescence Polarization Assay", "type": "binding", "description": "The Predictor™ hERG Fluorescence Polarization Assay (Invitrogen, Karlsruhe, GER) determines whether test compounds block the hERG channel [Piper, D. R. et al., Assay Drug Dev Technol. 2008, 6(2):213-23]. The assay uses a membrane fraction containing hERG channel protein (Predictor™ hERG Membrane) and a high-affinity red fluorescent hERG channel ligand, or “tracer” (Predictor™ hERG Tracer Red), in a homogenous, fluorescence polarization (FP)-based format. Compounds that bind to the hERG channel protein (competitors) are identified by their ability to displace the tracer, resulting in a lower fluorescence polarization. The assay was performed according to guidelines of the manufacturer"}, "[4]": {"target": "Rat Ghrelin Receptor (GHS-R 1A) (Rattus norvegicus (Rat), UniProt O08725)", "sequence (O08725 whole entry)": "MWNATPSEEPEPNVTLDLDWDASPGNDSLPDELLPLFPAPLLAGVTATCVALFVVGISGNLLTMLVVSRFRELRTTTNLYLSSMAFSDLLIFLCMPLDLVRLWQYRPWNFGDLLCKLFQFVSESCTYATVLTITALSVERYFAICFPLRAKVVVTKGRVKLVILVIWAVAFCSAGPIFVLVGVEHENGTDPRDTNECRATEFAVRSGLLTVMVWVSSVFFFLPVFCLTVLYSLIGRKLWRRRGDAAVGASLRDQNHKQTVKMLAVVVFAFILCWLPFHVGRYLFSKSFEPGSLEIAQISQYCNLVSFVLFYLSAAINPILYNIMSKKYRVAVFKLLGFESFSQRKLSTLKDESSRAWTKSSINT", "assay": "Calcium release, antagonist", "type": "cell-based", "description": "(§2) Mouse LTK-cells (ATCC CCL-1.3) were stably transfected with a plasmid containing the CMV minimal promoter (CMVmin) linked to three cAMP response elements (CRE) followed by a luciferase reporter gene. Based on this parental cell line, single cell clones stably overexpressing the human, rat or mouse GHS-R 1A have been established and characterized with respect to suitability for the different assay formats.\n(§3) For determination of calcium release the respective cell line was loaded with Fluo-4 NW Calcium Assay Kit (Moleculare Probes/Invitrogen # F10741) for 80 min @ 37° C. After 15 minutes of preincubation with different concentrations of the test compounds ghrelin was added and the signal was monitored for 60 seconds by a FlexStation3 microplate reader (Molecular Devices).\n(§4) IC50 values were determined by using the GraphPad Prism analysis program (GraphPad Software).\n(§5) In the following table 1 results obtained for selected compounds of the invention are presented in comparison to compound 50 disclosed in WO07/020,013. Values given are either single measurements or mean values of up to nine independent experiments performed in duplicate (binding) or quadruplicate (functional assays) measurements."}, "[5]": {"target": "Mouse Ghrelin Receptor (GHS-R 1A) (Mus musculus (Mouse), UniProt Q99P50)", "sequence (Q99P50 whole entry)": "as the sequence (O08725 whole entry) above, with P30S, A249S counted along it", "assay": "Calcium release, antagonist", "type": "cell-based", "description": "as §2, §3, §4, §5"}, "[6]": {"assay": "Stability in liver microsomes", "type": "in vitro ADME, rat", "conditions": "@37° C./1 mg/ml Liver Microsomes, 10 μM", "method": "as §1"}, "[7]": {"assay": "CaCo-2 permeability assay", "type": "in vitro ADME", "conditions": "human; for Papp A→B at 2 h: a to b, read-out: CaCo-2 Assay Papp ab; for Papp A→B at 2 h / Papp B→A at 2 h: 3 or 5 μM, 2 hours at 37° C.; for Papp B→A at 2 h: b to a, read-out: CaCo-2 Assay Papp ba; for efflux ratio at 2 h: read-out: CaCo-2 Assay ba/ab", "method": "For the CaCo-2 permeability assay 80.000 CaCo-2 cells (ATCC HTB-37) were seeded in DMEM supplemented with 10% FCS, 1% Penicillin/Streptomycin and 1% non-essential amino acids per 24 well transwell plate (Corning 3397) and were grown for 21 days by changing the media every second day. On day 21 the medium was replaced by HBSS buffer (Invitrogen #14065) supplemented with 0.25% and 1% BSA for the donor and acceptor compartment, respectively. The compounds were added to the respective donor compartment in a concentration of 3 or 5 μM and were incubated for 2 hours at 37° C. The respective compound concentrations were determined by LC-MS analytics using an API 2000. Data analysis was performed as described by Sun and Pang 2008, Drug Metabolism and Disposition 36, 102-123."}, "CYP3A4": {"target": "CYP3A4 (Homo sapiens (Human), UniProt P08684)", "sequence (P08684 whole entry)": "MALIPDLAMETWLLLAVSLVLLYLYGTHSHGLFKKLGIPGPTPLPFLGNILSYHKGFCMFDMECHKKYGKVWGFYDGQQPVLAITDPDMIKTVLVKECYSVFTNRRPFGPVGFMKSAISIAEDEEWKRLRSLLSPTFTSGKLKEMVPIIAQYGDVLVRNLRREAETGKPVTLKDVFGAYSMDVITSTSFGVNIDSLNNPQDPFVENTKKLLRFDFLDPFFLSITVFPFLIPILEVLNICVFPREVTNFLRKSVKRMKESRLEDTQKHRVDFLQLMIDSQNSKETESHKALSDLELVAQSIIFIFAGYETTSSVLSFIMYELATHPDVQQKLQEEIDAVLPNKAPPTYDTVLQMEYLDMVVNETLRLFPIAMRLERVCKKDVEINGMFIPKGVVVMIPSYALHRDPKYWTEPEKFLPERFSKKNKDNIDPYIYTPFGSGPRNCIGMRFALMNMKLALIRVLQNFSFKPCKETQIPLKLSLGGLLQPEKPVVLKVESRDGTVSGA", "assay": "CYP3A4 inhibition in human liver microsomes, direct and metabolism-dependent", "type": "in vitro ADME", "method": "Direct and metabolism-dependent inhibition of CYP enzymes are assessed with specific marker substrates by a HPLC-based UV detection method in human liver microsomes. Incubations are carried out as doublets with final concentrations ranging from 0.01 to 200 μM (30 min, 37° C.). Metabolism-dependent inhibition was assessed by incubation for 30 minutes in the presence of NADPH prior to the addition of marker substrate to allow the generation of metabolites. Percent inhibition is plotted against concentration to calculate or extrapolate IC50 values from the sigmoid curve."}, "[8]": {"target": "T1, Human Ghrelin Receptor (GHS-R 1A) (Homo sapiens (Human), UniProt Q92847)", "T1 sequence (Q92847 whole entry)": "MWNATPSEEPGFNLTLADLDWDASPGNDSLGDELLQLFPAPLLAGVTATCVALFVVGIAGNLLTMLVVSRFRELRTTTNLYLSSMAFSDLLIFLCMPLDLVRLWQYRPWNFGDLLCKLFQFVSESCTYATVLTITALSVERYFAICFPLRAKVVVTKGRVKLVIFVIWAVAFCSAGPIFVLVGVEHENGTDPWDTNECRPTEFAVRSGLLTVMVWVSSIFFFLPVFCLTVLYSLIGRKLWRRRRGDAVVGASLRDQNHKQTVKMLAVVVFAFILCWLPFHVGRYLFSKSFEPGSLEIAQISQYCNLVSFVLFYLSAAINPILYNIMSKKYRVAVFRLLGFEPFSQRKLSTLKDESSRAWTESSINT", "assay": "CRE/Luc reporter gene assay, antagonist", "type": "cell-based", "conditions": "6 h, 1 μM rolipram", "description": "as §2\nFor the CRE/Luc reporter gene assay, the mouse LTK-cells stably expressing the human GHS-1RA and a luciferase reporter gene under the control of CRE elements and the CMV minimal promoter were incubated for 6 h with 1 μM rolipram in the presence of different concentrations of AEZS-130. Subsequently, cells were lysed and ATP bioluminescence was measured in the luminescence mode on FlexStation3 (Molecular Devices).\nas §4\n(§6) Values given are either single measurements or mean values of up to nine independent experiments performed in duplicate (binding) or quadruplicate (functional assays) measurements."}, "[9]": {"target": "T1, Human Ghrelin Receptor (GHS-R 1A)", "assay": "Calcium release, antagonist", "type": "cell-based", "conditions": "15 minutes preincubation, then ghrelin", "description": "as §2, §3, §4, §6"}, "[10]": {"target": "T1, Human Ghrelin Receptor (GHS-R 1A)", "assay": "Competitive binding, iodinated ghrelin tracer, intact LTK-cells overexpressing GHS-R 1A", "conditions": "60 min at 37° C.", "description": "as §2\nFor receptor competitive binding studies, iodinated ghrelin was used as a tracer at conditions of about 80% saturation binding. Different concentrations of the test compounds were analyzed for displacement of the tracer. For this purpose, the suspension of intact cells plus tracer mix and different test compound concentrations was layered on top of silicon/paraffin oil, incubated for 60 min at 37° C. and subjected to centrifugation. After freezing in liquid nitrogen the cell pellets were separated from the supernatant by cutting the tubes in the intermediate silicon/paraffin oil section and analyzed by γ-radiation analysis. The amount of unspecific binding was determined by including unlabeled ghrelin at 1 μM final concentration.\nas §4, §6"}, "[11]": {"conditions": "marker substrate midazolam, 30 minutes preincubation with NADPH, read-out: CYP3A4 Inhibition Midazolam Preincubation EC50"}, "[12]": {"conditions": "marker substrate midazolam, direct inhibition, human liver microsomes, read-out: CYP3A4 Inhibition Midazolam EC50"}, "[13]": {"conditions": "15 minutes preincubation, then ghrelin, read-out: Rat Ghrelin Receptor Antagonist Calcium Release IC50"}, "[14]": {"conditions": "15 minutes preincubation, then ghrelin, read-out: Mouse Ghrelin Receptor Antagonist Calcium Release IC50"}}, "note": "pEC50, pIC50: −log10 of the molar value. Read-outs that look alike come from different tables or passages of the source.", "data": [{"smiles": "COc1ccc(Cn2c([C@@H](Cc3ccccc3)NC(C)=O)nnc2[C@@H](Cc2c[nH]c3ccccc23)NC(=O)c2ccccn2)cc1.O=C(O)C(F)(F)F", "note": "[Cpd 4, Pyridine-2-carboxylic acid [(R)-1-[5-((R)-1-acetylamino-2-phenyl-ethyl)-4-(4-methoxy-benzyl)-4H-[1,2,4]triazol-3-yl]-2-(1H-indol-3-yl)-ethyl]-amide]", "values": [{"measurement": "Inhibition of MDR1 ATPase EC50", "setting": "[1]", "result": "no full dose"}, {"measurement": "Stability in Liver Microsomes Human % Remaining after 1 h Incubation", "setting": "[2]", "result": 9.1, "unit": "%"}, {"measurement": "Stability in Liver Microsomes Mouse % Remaining (@30 min)", "setting": "[3]", "result": 0.0, "unit": "%"}, {"measurement": "hERG Predictor EC50", "setting": "hERG channel", "result": "no full dose"}, {"measurement": "pIC50", "setting": "[4]", "result": 6.62}, {"measurement": "pIC50", "setting": "[5]", "result": 7.16}, {"measurement": "Stability in Liver Microsomes Rat % Remaining after 1 h Incubation", "setting": "[6]", "result": 46.7, "unit": "%"}, {"measurement": "Papp A→B at 2 h", "setting": "[7]", "result": 1.41, "unit": "×10⁻⁶ cm/s"}, {"measurement": "Papp B→A at 2 h", "setting": "[7]", "result": 25.4, "unit": "×10⁻⁶ cm/s"}, {"measurement": "efflux ratio at 2 h", "setting": "[7]", "result": 18}, {"measurement": "pEC50", "setting": "CYP3A4; [11]", "result": 5.64}, {"measurement": "pEC50", "setting": "CYP3A4; [12]", "result": 5.41}]}, {"smiles": "COc1ccc(Cn2c([C@@H](Cc3ccccc3)NC=O)nnc2[C@@H](Cc2c[nH]c3ccccc23)NC(=O)c2ccccn2)cc1.O=C(O)C(F)(F)F", "note": "[Cpd 5, Pyridine-2-carboxylic acid [(R)-1-[5-((R)-1-formylamino-2-phenyl-ethyl)-4-(4-methoxy-benzyl)-4H-[1,2,4]triazol-3-yl]-2-(1H-indol-3-yl)-ethyl]-amide]", "values": [{"measurement": "Inhibition of MDR1 ATPase EC50", "setting": "[1]", "result": "no inhibition"}, {"measurement": "Stability in Liver Microsomes Human % Remaining after 1 h Incubation", "setting": "[2]", "result": 0, "unit": "%"}, {"measurement": "Stability in Liver Microsomes Mouse % Remaining (@30 min)", "setting": "[3]", "result": 0.0, "unit": "%"}, {"measurement": "pIC50", "setting": "[8]", "result": 8.08}, {"measurement": "hERG Predictor EC50", "setting": "hERG channel", "result": "no full dose"}, {"measurement": "pIC50", "setting": "[9]", "result": 8.51}, {"measurement": "pIC50", "setting": "[4]; [13]", "result": 6.54}, {"measurement": "pIC50", "setting": "[5]; [14]", "result": 7.05}, {"measurement": "Stability in Liver Microsomes Rat % Remaining after 1 h Incubation", "setting": "[6]", "result": 41.9, "unit": "%"}, {"measurement": "Papp A→B at 2 h", "setting": "[7]", "result": 1.26, "unit": "×10⁻⁶ cm/s"}, {"measurement": "Papp B→A at 2 h", "setting": "[7]", "result": 16.8, "unit": "×10⁻⁶ cm/s"}, {"measurement": "efflux ratio at 2 h", "setting": "[7]", "result": 13.3}, {"measurement": "pIC50", "setting": "[10]", "result": 8.47}, {"measurement": "pEC50", "setting": "CYP3A4; [11]", "result": 5.92}, {"measurement": "pEC50", "setting": "CYP3A4; [12]", "result": 5.42}]}, {"smiles": "COc1ccc(Cn2c(CCc3ccccc3)nnc2[C@@H](Cc2c[nH]c3ccccc23)NC(=O)OCC(C)C)cc1.O=C(O)C(F)(F)F", "note": "[Cpd 17, {(R)-2-(1H-Indol-3-yl)-1-[4-(4-methoxy-benzyl)-5-phenethyl-4H-[1,2,4]triazol-3-yl]-ethyl}-carbamic acid isobutyl ester]", "values": [{"measurement": "Inhibition of MDR1 ATPase EC50", "setting": "[1]", "result": "no full dose"}, {"measurement": "Stability in Liver Microsomes Human % Remaining after 1 h Incubation", "setting": "[2]", "result": 0, "unit": "%"}, {"measurement": "Stability in Liver Microsomes Mouse % Remaining (@30 min)", "setting": "[3]", "result": 0.0, "unit": "%"}, {"measurement": "pIC50", "setting": "[8]", "result": 7.68}, {"measurement": "pEC50", "setting": "hERG channel", "result": 5.43}, {"measurement": "pIC50", "setting": "[9]", "result": 7.50}, {"measurement": "pIC50", "setting": "[4]; [13]", "result": 6.03}, {"measurement": "pIC50", "setting": "[5]; [14]", "result": 6.22}, {"measurement": "Stability in Liver Microsomes Rat % Remaining after 1 h Incubation", "setting": "[6]", "result": 24.8, "unit": "%"}, {"measurement": "Papp A→B at 2 h", "setting": "[7]", "result": 22.4, "unit": "×10⁻⁶ cm/s"}, {"measurement": "Papp B→A at 2 h", "setting": "[7]", "result": 10, "unit": "×10⁻⁶ cm/s"}, {"measurement": "efflux ratio at 2 h", "setting": "[7]", "result": 0.45}, {"measurement": "pIC50", "setting": "[10]", "result": 8.07}, {"measurement": "pEC50", "setting": "CYP3A4; marker substrate testosteron, 30 minutes preincubation with NADPH, read-out: CYP3A4 Inhibition Testosteron Preincubation EC50", "result": 5.70}, {"measurement": "pEC50", "setting": "CYP3A4; marker substrate testosteron, direct inhibition, human liver microsomes, read-out: CYP3A4 Inhibition Testosteron EC50", "result": 4.98}]}]}
